Results taken from patent US12486228B2, “N-substituted indoles and use as allosteric modulators of cannabinoid receptors” (priority 2018, dated 2025).
pEC50: −log10 of the molar value. Where two headings read alike, the source gives them in different places.

What was measured:
CB2 [1] = molecular target: T1, CB2 (Homo sapiens, UniProt P34972); assay: cell-based; settings: for pEC50 / Emax: CB2, agonist mode; for pEC50: read-out: CB2 Agonist mode cAMP EC50; for Emax: read-out: CB2 Agonist mode cAMP Emax
CB2 [2] = molecular target: T1, CB2; assay: cell-based; settings: for pEC50 / Emax: CB2, agonist mode; for pEC50: read-out: CB2 Agonist mode β-Arrestin EC50; for Emax: read-out: CB2 Agonist mode β-Arrestin Emax
hCB1 [3] = molecular target: T2, hCB1 (Homo sapiens, UniProt P21554); assay: cell-based; design: host or cells: CHO-K1
Protocol: HitHunter cAMP assay: Inhibition of forskolin-stimulated cAMP was determined using the DiscoveRx HitHunter assay in hCB1R CHO-K1 cells. Cells (20,000 cells/well in low-volume 96 well plates) were incubated overnight in Opti-MEM (Invitrogen) containing 1% FBS at 37° C. and 5% CO2. Following this, Opti-MEM media was removed and replaced with cell assay buffer (DiscoveRx) and cells were co-treated at 37° C. with 10 μM forskolin and hCB1R ligands (0.10 nM-10 μM) for 30 min or 90 min cAMP antibody solution and cAMP working detection solutions were then added to cells according to the manufacturer's directions (DiscoveRx®) and cells were incubated for 60 min at room temperature. cAMP solution A was added according to the manufacturer's directions (DiscoveRx®) and cells were incubated for an additional 60 min at room temperature before chemiluminescence was measured on a Cytation 5 plate reader (top read, gain 200, integration time 10,000 ms).

hCB1 [4] = molecular target: T2, hCB1; assay: cell-based; design: host or cells: CHO-K1 PathHunter
Protocol: PathHunter CB1 β-Arrestin Assay: Chinese hamster ovary K1 (CHO-K1)-PathHunter hCB1 β-arrestin cells (DiscoveRx, Fremont, CA) were seeded at 5000 cells/well in 384-well plates 24 h before use and incubated at 37° C., 5% CO2. Compounds were dissolved in dimethyl sulfoxide (DMSO) and diluted in optimized cell culture (OCC) media. Agonist EC80 was determined directly from an agonist dose—response curve (data not shown). […] Five microliters of allosteric modulator or vehicle solution was added to each well at the appropriate concentrations and incubated for 30 min. Five microliters of agonist was then added to each well followed by a 90 min incubation. Fifteen microliters of detection reagent was then added followed by further 60 min incubation at room temperature. Chemiluminescence was measured on a standard luminescence plate reader as relative light units (RLU). Basal RLU was defined as zero. […] Data were analyzed using the fourparameter variable-slope and allosteric EC50 shift nonlinear regression equations in Prism 5.0 (GraphPad, San Diego, CA).

[5] = tested on: normotensive C57Bl/6J mice; settings: 0.2% GAT1102 combined with subthreshold 0.25% WIN55,212-2, topical, at 6 and 12 hrs, n=5, P<0.05
Protocol: (§1) Normotensive C57Bl/6J mice and Sh3pxd2b mice were obtained from Jackson Laboratory (Bar Harbor, Maine). The Sh3pxd2b mice were bred in house, and their progenies with abnormal phenotypical morphology, identified as a nee mice, were used for experiments.
(§2) Drug was administered topically (5 μl/eye) to the right eyes, while the left eyes received vehicle control (2% DMSO+4% Tween-20 in Tocrisolve; 5 μl).
(§3) Mice were anesthetized with the isoflurane (3% induction, 1.5% maintenance). The intraocular pressure (TOP) was measured with a handheld rebound tonometer (Tonolab, Icare, Finland), calibrated to mouse. Ten recordings were taken for each eye and then averaged. The IOP readings were taken at time 0 (baseline), 1, 6 and 12 hrs after the drug/vehicle administration. All the measurements were taken at the same time of the day, in order to minimize variability related to diurnal changes in IOP.
(§4) Data was analyzed by GraphPad version 6.0 (GraphPad Software, Inc., La Jolla, CA). Paired t-tests were used to compare between eyes of the same animal. A P value of <0.05 was considered significant. […] Values are represented as a change in IOP from the baseline (time 0).

[6] = tested on: ocular hypertensive nee mice; settings: GAT1102 0.2% alone, topical, at 1 and 12 hrs, n=6, P<0.05
Protocol: as §1, §2, §3, §4

[7] = tested on: excitatory postsynaptic currents (EPSCs)
[8] = CB1, PAM mode, read-out: CB1 PAM mode cAMP EC50
[9] = CB1, agonist mode, read-out: CB1 Agonist mode cAMP EC50
[10] = read-out: CB1 Agonist mode cAMP Emax, CB1, agonist mode
[11] = read-out: CB1 PAM mode cAMP Emax, CB1, PAM mode
[12] = CB1, PAM mode, read-out: CB1 PAM mode β-Arrestin EC50
[13] = CB1, agonist mode, read-out: CB1 Agonist mode β-Arrestin EC50
[14] = read-out: CB1 Agonist mode β-Arrestin Emax
[15] = read-out: CB1 PAM mode β-Arrestin Emax

T1 sequence (P34972 whole entry, species assumed): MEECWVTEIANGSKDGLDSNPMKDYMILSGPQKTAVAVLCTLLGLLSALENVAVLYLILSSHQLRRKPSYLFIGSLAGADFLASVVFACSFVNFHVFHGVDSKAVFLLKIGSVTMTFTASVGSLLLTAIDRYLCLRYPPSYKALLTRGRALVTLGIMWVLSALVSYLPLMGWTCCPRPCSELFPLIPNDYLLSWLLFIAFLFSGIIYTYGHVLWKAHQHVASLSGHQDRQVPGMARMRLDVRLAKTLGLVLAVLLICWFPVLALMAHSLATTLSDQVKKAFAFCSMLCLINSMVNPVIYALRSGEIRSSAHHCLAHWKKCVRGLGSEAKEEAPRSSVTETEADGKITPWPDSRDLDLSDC
T2 sequence (P21554 whole entry): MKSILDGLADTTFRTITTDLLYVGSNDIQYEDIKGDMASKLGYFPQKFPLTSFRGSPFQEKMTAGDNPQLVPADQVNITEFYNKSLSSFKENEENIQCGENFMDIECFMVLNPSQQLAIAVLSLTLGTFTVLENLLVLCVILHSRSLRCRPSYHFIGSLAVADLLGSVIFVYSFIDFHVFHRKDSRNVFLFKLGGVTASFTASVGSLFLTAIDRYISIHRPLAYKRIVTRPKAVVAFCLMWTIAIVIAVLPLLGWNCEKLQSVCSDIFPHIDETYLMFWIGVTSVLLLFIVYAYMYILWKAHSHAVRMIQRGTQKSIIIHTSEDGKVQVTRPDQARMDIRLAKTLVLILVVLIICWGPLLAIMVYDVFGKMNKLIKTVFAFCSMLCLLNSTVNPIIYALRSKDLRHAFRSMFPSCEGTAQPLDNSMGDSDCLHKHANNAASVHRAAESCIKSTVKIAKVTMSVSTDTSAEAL

SMILES: O=C(O)CCC(c1ccccc1)c1cn(-c2ccncc2)c2ccccc12 (centres unmarked) [Compound 23, 4-Phenyl-4-(1-(pyridin-4-yl)-1H-indol-3-yl)butanoic acid]
- pEC50 (CB2 [1]): 6.24
- Emax (CB2 [1]): 78%
- pEC50 (CB2 [2]): < 5.00
- Emax (CB2 [2]): 0%
- pEC50 (hCB1 [3]; [8]): 5.97
- pEC50 (hCB1 [3]; [9]): 6.45
- Emax (hCB1 [3]; [10]): 83%
- Emax (hCB1 [3]; [11]): 104%
- pEC50 (hCB1 [4]; [12]): < 5.00
- pEC50 (hCB1 [4]; [13]): < 5.00
- Emax (hCB1 [4]; [14]): 0%
- Emax (hCB1 [4]; [15]): 0%

SMILES: O=C(O)CCC(c1ccccc1)c1c[nH]c2ccccc12 (centres unmarked) [Compound 28, 4-(1H-Pndol-3-yl)-4-phenylbutanoic acid]
- pEC50 (CB2 [1]): < 5.00
- Emax (CB2 [1]): 29%
- pEC50 (CB2 [2]): < 5.00
- Emax (CB2 [2]): 0%
- pEC50 (hCB1 [3]; [8]): 5.36
- pEC50 (hCB1 [3]; [9]): 5.01
- Emax (hCB1 [3]; [10]): 60%
- Emax (hCB1 [3]; [11]): 71%
- pEC50 (hCB1 [4]; [12]): < 5.00
- pEC50 (hCB1 [4]; [13]): < 5.00
- Emax (hCB1 [4]; [14]): 0%
- Emax (hCB1 [4]; [15]): 0%

SMILES: O=C(O)CCC(c1ccccc1)c1cn(C(=O)c2ccccc2)c2ccccc12 (centres unmarked) [Compound 29, 4-(1-Penzoyl-1H-indol-3-yl)-4-phenylbutanoic acid]
- pEC50 (CB2 [1]): 6.38
- Emax (CB2 [1]): 76%
- pEC50 (CB2 [2]): < 5.00
- Emax (CB2 [2]): 0%
- pEC50 (hCB1 [3]; [8]): 6.15
- pEC50 (hCB1 [3]; [9]): 6.22
- Emax (hCB1 [3]; [10]): 92%
- Emax (hCB1 [3]; [11]): 114%
- pEC50 (hCB1 [4]; [12]): < 5.00
- pEC50 (hCB1 [4]; [13]): < 5.00
- Emax (hCB1 [4]; [14]): 0%
- Emax (hCB1 [4]; [15]): 0%

SMILES: CC(=O)CC(C)C(c1ccccc1)c1cn(-c2ccccc2)c2ccccc12 (centres unmarked) [Compound 41, 4-Methyl-5-phenyl-5-(1-phenyl-1H-indol-3-yl)pentan-2-one]
- CB2 Agonist mode cAMP Emax (CB2 [1]): (34) %
- pEC50 (CB2 [1]): < 5.00
- pEC50 (CB2 [2]): < 5.00
- Emax (CB2 [2]): 0%
- pEC50 (hCB1 [3]; [8]): < 5.00
- pEC50 (hCB1 [3]; [9]): < 5.00
- Emax (hCB1 [3]; [10]): 0%
- Emax (hCB1 [3]; [11]): 0%
- pEC50 (hCB1 [4]; [12]): < 5.00
- pEC50 (hCB1 [4]; [13]): < 5.00
- Emax (hCB1 [4]; [14]): 0%
- Emax (hCB1 [4]; [15]): 0%

SMILES: CC(=O)CC(C)C(c1ccccc1)c1cn(-c2ccccc2)c2ccccc12 (centres unmarked) [Compound 42, 4-Methyl-5-phenyl-5-(1-phenyl-1H-indol-3-yl)pentan-2-one]
- CB2 Agonist mode cAMP Emax (CB2 [1]): (0) %
- CB2 Agonist mode β-Arrestin Emax (CB2 [2]): 0%
- pEC50 (CB2 [2]): < 5.00
- CB1 PAM mode cAMP Emax (hCB1 [3]; CB1, PAM mode): (0) %
- pEC50 (hCB1 [3]; [8]): < 5.00
- CB1 Agonist mode cAMP Emax (hCB1 [3]; CB1, agonist mode): (0) %
- CB1 PAM mode β-Arrestin Emax (hCB1 [4]; CB1, PAM mode): (0) %
- CB1 Agonist mode β-Arrestin Emax (hCB1 [4]; CB1, agonist mode): (0) %

SMILES: O=[N+]([O-])CC(c1ccccc1)c1c(-c2ccccc2)[nH]c2ccccc12 (centres unmarked) [GAT211, reference compound]
- CB2 Agonist mode cAMP Emax (CB2 [1]): (0) %
- pEC50 (CB2 [1]): < 5.00
- CB2 Agonist mode β-Arrestin Emax (CB2 [2]): 0%
- pEC50 (CB2 [2]): < 5.00
- CB1 PAM mode cAMP Emax (hCB1 [3]; CB1, PAM mode): (73) %
- CB1 Agonist mode cAMP Emax (hCB1 [3]; CB1, agonist mode): (94) %
- CB1 PAM mode β-Arrestin Emax (hCB1 [4]; CB1, PAM mode): (59) %
- CB1 Agonist mode β-Arrestin Emax (hCB1 [4]; CB1, agonist mode): (14) %

SMILES: O=C(O)CCC(c1ccccc1)c1cn(-c2ccccc2)c2ccccc12 (centres unmarked) [GAT1102, 4-Phenyl-4-(1-phenyl-1H-indol-3-yl)butanoic acid]
- IOP compared to vehicle [5]: significantly lower
- IOP change [6]: significantly decreased IOP
- agonist properties (direct inhibition of EPSCs) ([7]; 1 μM GAT1102): exhibited agonist properties in some cells
- PAM effect on depolarization-induced suppression of excitation (DSE) ([7]; slowing recovery for DSE, in most cases occluded by direct inhibition): some evidence of a modest GAT1102 PAM effect
